Each structure is given as a SMILES string.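 Five concentrations, 48 hours, 96-well plates. TGI is the concentration that stops growth completely.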 Some results are limits rather than exact numbers.

The first assay deals with A549 NSCLC. The experiment in a line: NCI tumour cell line growth inhibition, 48 h.
Take `Cc1nn(C(=O)Cc2ccccc2)c2c1C(c1ccc(Cl)cc1)SC(N)=N2` (stereo not drawn): the TGI was above 100 µM.
For `C#CC(C)(C)OC(=O)C(=[N+]=[N-])C(C)=O`, the TGI is above 10 µM.
On to `CCOC(=O)/C=C/[C@H](O[Si](CC)(CC)CC)C(C)(C)C`, for which the TGI was above 100 µM.
For the compound `CC(C)N(C(=O)C1(O)c2ccccc2C=Cc2ccccc21)C(C)C`, the TGI turned out to be 48.3 µM.
In turn, `COc1ccc2c(c1)nc1n2C(c2c(Cl)cccc2Cl)SC1` (stereo not drawn) showed a TGI above 100 µM.
In turn, `CCCCCC(=O)CCCCCCCC(O)CC(=O)OCC` (stereo not drawn) displayed a TGI above 100 µM.
Compound `CCCCSC1=N/C(=C\c2ccco2)C(Cl)=N1` had a TGI above 100 µM.
`CC(=O)O[C@H]1CC[C@@]2(C)C(=CC[C@@H]3[C@@H]2CC[C@]2(C)NC(=O)/C(=C\c4ccccc4)C[C@@H]32)C1` showed a TGI of 38.5 µM.
As for `O=C(CCc1cc(O)ccc1O)OCCc1ccccc1`, the TGI was above 100 µM.
As for `O=C(N[C@@H](c1ccccc1)[C@@H](O)C(=O)OCc1ccc([N+](=O)[O-])cc1)c1ccccc1`, the TGI is above 100 µM.
Consider `COC(=O)c1c(C#N)[nH]c(-c2ccsc2)c1C(=O)OC`, for which the TGI is above 100 µM.
Turning to `CC(=O)O[C@H]1CCC2[C@@H]3CCC4Nc5oncc5C[C@]4(C)C3CC[C@@]21C` (stereo partly drawn), the TGI was above 10 µM.
`Cc1c(O)c(OC2OC(CO)C(O)C(O)C2O)cc2c1CC[C@@H]1C2(C)C(=O)C[C@]2(C)[C@@H]([C@@](C)(O)C(=O)CCC(C)(C)O)[C@H](O)C[C@@]12C` (stereo partly drawn): the TGI was above 100 µM.
On to `Cc1cn(C2CC(O)C(CO[Si](C)(C)C(C)(C)C)OC2OC(C)C)c(=O)[nH]c1=O` (stereo not drawn), for which the TGI was above 100 µM.
`O=c1oc2ccccc2cc1-c1cn2ccccc2n1` yielded a TGI of 21 µM.
Compound `COC(=O)[C@H](Cc1c[nH]c2ccccc12)NC(=O)c1ccc(CNC(=O)/C(C)=C/c2ccccc2)cc1` yielded a TGI above 100 µM.

In the next assay the test system is ACHN renal. The experiment in a line: NCI tumour cell line growth inhibition, 48 h.
In the case of `Cc1nn(C(=O)Cc2ccccc2)c2c1C(c1ccc(Cl)cc1)SC(N)=N2` (stereo not drawn), the TGI was above 100 µM.
Turning to `C#CC(C)(C)OC(=O)C(=[N+]=[N-])C(C)=O`, the TGI is above 10 µM.
`CCOC(=O)/C=C/[C@H](O[Si](CC)(CC)CC)C(C)(C)C` gave a TGI above 100 µM.
`CC(C)N(C(=O)C1(O)c2ccccc2C=Cc2ccccc21)C(C)C` had a TGI of 29.5 µM.
For `COc1ccc2c(c1)nc1n2C(c2c(Cl)cccc2Cl)SC1` (stereo not drawn), the TGI is above 100 µM.
The compound `CCCCCC(=O)CCCCCCCC(O)CC(=O)OCC` (stereo not drawn) returned a TGI above 100 µM.
`CCCCSC1=N/C(=C\c2ccco2)C(Cl)=N1` gave a TGI above 100 µM.
As for `CC(=O)O[C@H]1CC[C@@]2(C)C(=CC[C@@H]3[C@@H]2CC[C@]2(C)NC(=O)/C(=C\c4ccccc4)C[C@@H]32)C1`, the TGI came to 76.1 µM.
Same read-out and setting: in the case of `O=C(CCc1cc(O)ccc1O)OCCc1ccccc1` it was 18.4 µM.
As to `O=C(N[C@@H](c1ccccc1)[C@@H](O)C(=O)OCc1ccc([N+](=O)[O-])cc1)c1ccccc1`, the TGI is above 100 µM.
`COC(=O)c1c(C#N)[nH]c(-c2ccsc2)c1C(=O)OC`: the TGI is above 100 µM.
The compound `CC(=O)O[C@H]1CCC2[C@@H]3CCC4Nc5oncc5C[C@]4(C)C3CC[C@@]21C` (stereo partly drawn) had a TGI above 10 µM.
Regarding `Cc1c(O)c(OC2OC(CO)C(O)C(O)C2O)cc2c1CC[C@@H]1C2(C)C(=O)C[C@]2(C)[C@@H]([C@@](C)(O)C(=O)CCC(C)(C)O)[C@H](O)C[C@@]12C` (stereo partly drawn), the TGI was above 100 µM.
In turn, `Cc1cn(C2CC(O)C(CO[Si](C)(C)C(C)(C)C)OC2OC(C)C)c(=O)[nH]c1=O` (stereo not drawn) yielded a TGI above 100 µM.
Compound `O=c1oc2ccccc2cc1-c1cn2ccccc2n1` gave a TGI of 11.4 µM.
Turning to `COC(=O)[C@H](Cc1c[nH]c2ccccc12)NC(=O)c1ccc(CNC(=O)/C(C)=C/c2ccccc2)cc1`, the TGI was above 100 µM.

A further assay has as its system BT-549 breast. The experiment in a line: NCI tumour cell line growth inhibition, 48 h.
Turning to `Cc1nn(C(=O)Cc2ccccc2)c2c1C(c1ccc(Cl)cc1)SC(N)=N2` (stereo not drawn), the TGI is above 100 µM.
For `C#CC(C)(C)OC(=O)C(=[N+]=[N-])C(C)=O`, the TGI is above 10 µM.
Take `CCOC(=O)/C=C/[C@H](O[Si](CC)(CC)CC)C(C)(C)C`: the TGI was above 100 µM.
For the compound `CC(C)N(C(=O)C1(O)c2ccccc2C=Cc2ccccc21)C(C)C`, the TGI is 34.6 µM.
On the same count and under the same terms, the value for `COc1ccc2c(c1)nc1n2C(c2c(Cl)cccc2Cl)SC1` (stereo not drawn) was above 100 µM; that for `CCCCCC(=O)CCCCCCCC(O)CC(=O)OCC` (stereo not drawn) was above 100 µM.
Still for that read-out and setting: the value for `CCCCSC1=N/C(=C\c2ccco2)C(Cl)=N1` was above 100 µM; that for `CC(=O)O[C@H]1CC[C@@]2(C)C(=CC[C@@H]3[C@@H]2CC[C@]2(C)NC(=O)/C(=C\c4ccccc4)C[C@@H]32)C1` was 34.2 µM; that for `O=C(CCc1cc(O)ccc1O)OCCc1ccccc1` was 26.6 µM.
Still for that read-out and setting: in the case of `O=C(N[C@@H](c1ccccc1)[C@@H](O)C(=O)OCc1ccc([N+](=O)[O-])cc1)c1ccccc1` it was above 100 µM.
In the case of `COC(=O)c1c(C#N)[nH]c(-c2ccsc2)c1C(=O)OC`, the TGI was above 100 µM.
As for `CC(=O)O[C@H]1CCC2[C@@H]3CCC4Nc5oncc5C[C@]4(C)C3CC[C@@]21C` (stereo partly drawn), the TGI was above 10 µM.
Consider `Cc1c(O)c(OC2OC(CO)C(O)C(O)C2O)cc2c1CC[C@@H]1C2(C)C(=O)C[C@]2(C)[C@@H]([C@@](C)(O)C(=O)CCC(C)(C)O)[C@H](O)C[C@@]12C` (stereo partly drawn), for which the TGI is above 100 µM.
As for `Cc1cn(C2CC(O)C(CO[Si](C)(C)C(C)(C)C)OC2OC(C)C)c(=O)[nH]c1=O` (stereo not drawn), the TGI was above 100 µM.
`O=c1oc2ccccc2cc1-c1cn2ccccc2n1` registered a TGI of 26.3 µM.
As to `COC(=O)[C@H](Cc1c[nH]c2ccccc12)NC(=O)c1ccc(CNC(=O)/C(C)=C/c2ccccc2)cc1`, the TGI was above 100 µM.

The test system of a further assay is COLO 205 colon. Put plainly: NCI tumour cell line growth inhibition, 48 h.
Compound `Cc1nn(C(=O)Cc2ccccc2)c2c1C(c1ccc(Cl)cc1)SC(N)=N2` (stereo not drawn) had a TGI above 100 µM.
As to `CCOC(=O)/C=C/[C@H](O[Si](CC)(CC)CC)C(C)(C)C`, the TGI is above 100 µM.
For the compound `CC(C)N(C(=O)C1(O)c2ccccc2C=Cc2ccccc21)C(C)C`, the TGI was 33.4 µM.
The compound `COc1ccc2c(c1)nc1n2C(c2c(Cl)cccc2Cl)SC1` (stereo not drawn) had a TGI above 100 µM.
Same read-out and setting: the value for `CCCCSC1=N/C(=C\c2ccco2)C(Cl)=N1` was above 100 µM; that for `CC(=O)O[C@H]1CC[C@@]2(C)C(=CC[C@@H]3[C@@H]2CC[C@]2(C)NC(=O)/C(=C\c4ccccc4)C[C@@H]32)C1` was 38.5 µM; that for `O=C(CCc1cc(O)ccc1O)OCCc1ccccc1` was 22.6 µM.
For the compound `O=C(N[C@@H](c1ccccc1)[C@@H](O)C(=O)OCc1ccc([N+](=O)[O-])cc1)c1ccccc1`, the TGI was above 100 µM.
With `COC(=O)c1c(C#N)[nH]c(-c2ccsc2)c1C(=O)OC`, the TGI is above 100 µM.
As for `CC(=O)O[C@H]1CCC2[C@@H]3CCC4Nc5oncc5C[C@]4(C)C3CC[C@@]21C` (stereo partly drawn), the TGI was above 10 µM.
With `Cc1c(O)c(OC2OC(CO)C(O)C(O)C2O)cc2c1CC[C@@H]1C2(C)C(=O)C[C@]2(C)[C@@H]([C@@](C)(O)C(=O)CCC(C)(C)O)[C@H](O)C[C@@]12C` (stereo partly drawn), the TGI is above 100 µM.
For the compound `Cc1cn(C2CC(O)C(CO[Si](C)(C)C(C)(C)C)OC2OC(C)C)c(=O)[nH]c1=O` (stereo not drawn), the TGI is 48.9 µM.
Compound `O=c1oc2ccccc2cc1-c1cn2ccccc2n1` returned a TGI above 100 µM.
Compound `COC(=O)[C@H](Cc1c[nH]c2ccccc12)NC(=O)c1ccc(CNC(=O)/C(C)=C/c2ccccc2)cc1` showed a TGI of 50.5 µM.

A further assay deals with DU-145 prostate. The experiment in a line: NCI tumour cell line growth inhibition, 48 h.
Take `Cc1nn(C(=O)Cc2ccccc2)c2c1C(c1ccc(Cl)cc1)SC(N)=N2` (stereo not drawn): the TGI was above 100 µM.
The same measure, in the same setting: in the case of `C#CC(C)(C)OC(=O)C(=[N+]=[N-])C(C)=O` it was above 10 µM; in that of `CCOC(=O)/C=C/[C@H](O[Si](CC)(CC)CC)C(C)(C)C`, above 100 µM; in that of `CC(C)N(C(=O)C1(O)c2ccccc2C=Cc2ccccc21)C(C)C`, 33.1 µM.
Still for that read-out and setting: the value for `COc1ccc2c(c1)nc1n2C(c2c(Cl)cccc2Cl)SC1` (stereo not drawn) was above 100 µM; that for `CCCCCC(=O)CCCCCCCC(O)CC(=O)OCC` (stereo not drawn) was above 100 µM.

These data come from PubChem BioAssay (NCI).
